In patent US12171868B2 (Neurelis, Inc., priority 2022, dated 2024):
Where two headings read alike, the source gives them in different places.

Conditions: saturated

Q: Which Appearance (20% Dimethylacetamide/80% PEG 200) does the source give for `Cc1cc2c(s1)Nc1ccccc1N=C2N1CCN(C)CC1` [Olanzapine, 2-methyl-4-(4-methyl-1-piperazinyl)-10H-thieno[2,3-b] [1,5]benzodiazepine] here?
A: Clear amber solution

Q: What about the Appearance (40% Dimethylacetamide/60% PEG 200) of the same molecule?
A: Clear amber solution

Q: What about the Appearance (60% Dimethylacetamide/40% PEG 200) of the same molecule?
A: Clear dark amber solution

Q: And the Appearance (80% Dimethylacetamide/20% PEG 200)?
A: Clear dark amber solution

Q: And the Appearance (100% PEG 200)?
A: Clear amber solution
